Key:
[1] = tested on: E. coli (NCTC strain 10418); assay: Fluorescent signal generated by E. coli reducing nitrocoumarins (nitroaryl reductase activity); format: cell-based, Escherichia coli; details: 0.105 mmol/l; for Extent of reduction of the substrate (in words): end of the four-hour assay
Procedure: (§1) A sample of the 7-nitrocoumarin derivative is dissolved in 4 ml of hot, distilled water. The mass dissolved to make the stock solution is such that the final concentration of the compound in the assay is 0.105 mmol/l. This solution is added to 96 ml of Mueller-Hinton broth and the mixture is sterile-filtered.
(§2) The E. coli was grown for 24 hours at 35° C. on Columbia agar supplemented with sheep blood. The bacteria were then resuspended in sterile, distilled water and their density was adjusted to 0.5 on the MacFarland scale (i.e. about 10^8 cells/ml). This suspension was then diluted 100-fold in sterile Mueller-Hinton broth (i.e. to a final density of about 10^6 cells/ml).
(§3) Fifty microliters of each nitrocoumarin solution plus 50 μl of bacterial suspension were then added to the wells of a microtiter plate. The plates were incubated at 35° C. and the optical density and fluorescence of each well was read every 30 min for a total of 4 hours. Optical density (690 nm) readings were made using an Anthos 2001 spectrophotometer (Labtech International Limited), and fluorescence (excitation at 365 nm and emission at 440 nm) readings were made on a Biolite F1 2001 fluorometer (Labtech International Limited).
(§4) The effect of the concentration of 7-nitrocoumarin-3-carboxylic acid on the sensitivity of the assay to detect E. coli (NCTC strain 10418) was investigated at concentrations of the indicator ranging from 0 to 0.262 mmol/l. All other conditions were identical to those described in section A above.

[2] = tested on: Escherichia coli (NCTC 10418); assay: Growth of E. coli in Mueller-Hinton broth in the presence of nitrocoumarins (optical density 690 nm); format: cell-based; details: 0.105 mmol/l
Procedure: as §1, §2, §3, §4

Structure (SMILES) | Fluorescent signal ([1]; 0 min) | Fluorescent signal ([1]; 30 min) | Fluorescent signal ([1]; 60 min) | Fluorescent signal ([1]; 90 min) | Fluorescent signal ([1]; 120 min) | Fluorescent signal ([1]; 150 min) | Fluorescent signal ([1]; 180 min) | Fluorescent signal ([1]; 210 min) | Fluorescent signal ([1]; 240 min) | Optical density (690 nm) ([2]; 0 min) | Optical density (690 nm) ([2]; 30 min) | Optical density (690 nm) ([2]; 60 min) | Optical density (690 nm) ([2]; 90 min) | Optical density (690 nm) ([2]; 120 min) | Optical density (690 nm) ([2]; 150 min) | Optical density (690 nm) ([2]; 180 min) | Optical density (690 nm) ([2]; 210 min) | Optical density (690 nm) ([2]; 240 min) | also measured
CC(=O)c1c(C)c2ccc([N+](=O)[O-])cc2oc1=O [3-acetyl-4-methyl-7-nitrocoumarin] | 0 | 40 | 390 | 992 | 1804 | 2811 | 4090 | 5576 | 8017 | 0.000 | −0.003 | −0.002 | −0.001 | 0.002 | 0.008 | 0.023 | 0.051 | 0.110 | –
CCCC(=O)c1cc2ccc([N+](=O)[O-])cc2oc1=O [3-butyryl-7-nitrocoumarin] | 0 | 64 | 387 | 894 | 1538 | 2344 | 3329 | 4642 | 6845 | 0.000 | 0.001 | 0.005 | 0.007 | 0.009 | 0.012 | 0.015 | 0.039 | 0.096 | Extent of reduction of the substrate (in words) [1]: least reduced; Inhibitory effect on the growth of E. coli (in words) [2]: most powerful inhibitors
Cc1cc(=O)oc2cc([N+](=O)[O-])ccc12 [4-methyl-7-nitrocoumarin] | 0 | 15 | 302 | 974 | 2008 | 3299 | 5097 | 7545 | 11125 | 0.000 | 0.000 | 0.002 | 0.004 | 0.010 | 0.024 | 0.055 | 0.113 | 0.175 | –
O=C(c1cc2ccc([N+](=O)[O-])cc2oc1=O)N1CCOCC1 [7-nitrocoumarin-3-carboxymorpholide] | 0 | 180 | 665 | 1376 | 2414 | 3796 | 5817 | 8454 | 12263 | 0.000 | −0.002 | −0.001 | 0.001 | 0.005 | 0.014 | 0.037 | 0.068 | 0.109 | –
O=c1ccc2ccc([N+](=O)[O-])cc2o1 [7-nitrocoumarin] | 0 | 77 | 519 | 1447 | 2915 | 4713 | 7160 | 10182 | 14189 | 0.000 | −0.002 | 0.000 | 0.002 | 0.009 | 0.025 | 0.072 | 0.133 | 0.211 | –
CCOC(=O)c1cc2ccc([N+](=O)[O-])cc2oc1=O [ethyl-7-nitrocoumarin-3-carboxylate] | 0 | 173 | 814 | 1703 | 2813 | 4126 | 5646 | 7370 | 10859 | 0.000 | −0.005 | −0.008 | −0.008 | −0.006 | 0.000 | 0.018 | 0.046 | 0.116 | –
COC(=O)c1cc2ccc([N+](=O)[O-])cc2oc1=O [methyl-7-nitrocoumarin-3-carboxylate] | 0 | 174 | 702 | 1297 | 2035 | 2905 | 3946 | 5005 | 6668 | 0.000 | −0.001 | −0.001 | 0.000 | 0.000 | 0.002 | 0.006 | 0.014 | 0.032 | Extent of reduction of the substrate (in words) [1]: least reduced; Inhibitory effect on the growth of E. coli (in words) [2]: most powerful inhibitors; OD readings reduced compared with the untreated control [2]: 92%

— US20020031795A1, “Nitrocoumarins for detecting all micro-organisms” (priority 1998, published 2002)
